Assay results from patent US4981847A, “Tricyclic compounds” (Fujisawa Pharmaceutical Co., Ltd., priority 1988, dated 1991).

Legend:
[1] = test system: CCK receptor; assay: CCK receptor antagonism in isolated fundic circular muscle from guinea pig stomach; format: cell-based; conditions: test compound 1×10^-6 M, CCK-8 3.2×10^-7 M, 37° C.
Description: (A) CCK receptor antagonism in isolated fundic circular muscle from guinea pig stomach
The strip of circular muscle suspended in 25 ml organ bath containing Krebs' bicarbonate solution (NaCl 118 mM, KCl 4.8 mM, KH2 PO4 1.2 mM, MgSO4 1.2 mM, CaCl2 2.5 mM, NaHCO3 25 mM, glucose 11 mM and bovine serum albumin 0.1%) maintained at 37° C. and gassed with 95% O2 and 5% CO2.
The strip was placed under an initial tension of 0.5 g and equilibrated for 60 minutes during which the bath volume was replaced every 15 minutes. Isometric contraction was measured using a force transducer. CCK-8 (3.2×10^-7 M) was added to the bathing solution and the contractile force was measured After washing out CCK-8, test compound A (1×10^-6 M) was added. 5 minutes later, CCK-8 was added and the contractile force was measured. CCK antagonism was calculated by comparing the contractile force induced by CCK in the absence or presence of test compound A.

[2] = target: T1, rat pancreatic CCK receptors (Rattus norvegicus, UniProt P30551); assay: Inhibition of binding of [125I] CCK-8 to rat pancreatic CCK receptors
T1 construct: rat pancreatic CCK receptors; from tissue; host or cells: rat pancreas
T1 sequence (P30551 1-444): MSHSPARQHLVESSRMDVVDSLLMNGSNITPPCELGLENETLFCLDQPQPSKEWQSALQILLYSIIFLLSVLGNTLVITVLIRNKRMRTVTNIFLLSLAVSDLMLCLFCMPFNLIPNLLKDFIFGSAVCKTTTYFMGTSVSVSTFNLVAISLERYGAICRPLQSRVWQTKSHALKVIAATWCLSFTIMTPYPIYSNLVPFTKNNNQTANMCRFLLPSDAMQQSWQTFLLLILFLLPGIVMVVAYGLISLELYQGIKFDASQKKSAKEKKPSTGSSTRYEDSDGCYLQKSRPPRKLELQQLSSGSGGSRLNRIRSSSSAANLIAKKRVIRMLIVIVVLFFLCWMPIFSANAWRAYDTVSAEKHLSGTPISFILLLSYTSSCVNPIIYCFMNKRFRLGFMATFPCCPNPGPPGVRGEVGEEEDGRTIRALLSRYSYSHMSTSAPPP
Description: (B) Inhibition of binding of [^125 I] CCK-8 to rat pancreatic CCK receptors by test compound B (CCK antagonism).

[3] = test system: CCK-8-induced inhibition of gastric emptying; assay: Effect upon CCK-8-induced inhibition of gastric emptying in mice (CCK antagonism); format: in vivo; conditions: Mus musculus
Description: Effect of test compound B upon CCK-8-induced inhibition of gastric emptying in mice (CCK antagonism).

[4] = test system: caerulein-induced pancreatitis; assay: Inhibitory effect on caerulein-induced pancreatitis in mice; format: in vivo; conditions: Mus musculus
Description: (D) Inhibitory effect of test compound B on caerulein-induced pancreatitis in mice.

[5] = target: T2, guinea pig cerebral cortical CCK receptors (Cavia porcellus, UniProt H0VZC5); assay: Inhibition of binding of [125I] CCK-8 to guinea pig cerebral cortical CCK receptors
T2 construct: guinea pig cerebral cortical CCK receptors; from tissue; host or cells: guinea pig cerebral cortex
Description: (C) Inhibition of binding of [^125 I] CCK-8 to guinea pig cerebral cortical CCK receptors by test compound B (CCK antagonism).

T2 sequence (H0VZC5 entry or part of it): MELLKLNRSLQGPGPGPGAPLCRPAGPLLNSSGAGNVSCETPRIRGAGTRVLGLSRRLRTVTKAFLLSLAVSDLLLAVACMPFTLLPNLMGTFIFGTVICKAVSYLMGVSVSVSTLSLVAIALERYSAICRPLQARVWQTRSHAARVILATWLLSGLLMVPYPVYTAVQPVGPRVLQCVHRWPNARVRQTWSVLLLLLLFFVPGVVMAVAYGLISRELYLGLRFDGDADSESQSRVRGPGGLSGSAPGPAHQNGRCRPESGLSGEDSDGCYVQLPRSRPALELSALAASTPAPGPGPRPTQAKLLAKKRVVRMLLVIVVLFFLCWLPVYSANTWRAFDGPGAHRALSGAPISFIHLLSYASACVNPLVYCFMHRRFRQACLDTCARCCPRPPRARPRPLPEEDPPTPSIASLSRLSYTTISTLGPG

Row | Structure (SMILES) | Inhibition (%) of CCK-8-induced contraction [1] | IC50 [2] | ED50 [3] | ED50 [4] | IC50 [5]
1 | O=C(NC1N=C(c2ccccc2F)c2cccc3c2N(CC3)C1=O)c1cc2ccccc2[nH]1 (racemic) [test compound A, (3RS)-1-(2-Fluorophenyl)-3,4,6,7-tetrahydro-3-(2-indolylcarbonylamino)-4-oxopyrrolo[3,2,1-jk][1,4]benzodiazepine] | 90.4% | – | – | – | –
2 | O=C(N[C@H]1N=C(c2ccccc2F)c2cccc3c2N(CC3)C1=O)c1cc2ccccc2[nH]1 [test compound B, (3S)-1-(2-Fluorophenyl)-3,4,6,7,-tetrahydro-3-(2-indolylcarbonylamino)-4-oxopyrrolo[3,2,1-jk][1,4]-benzodiazepine] | – | 0.67 nM | 0.01 mg/kg | 0.022 mg/kg | 31 nM
